Laboratory results taken from paper PMC7567858, “Structure of inhibitor-bound mammalian complex I” (Nature Communications, 2020).

Experiments:
[1] = target: T1, NDUFA10 (in mouse complex I) (Mus musculus, UniProt Q99LC3); test: cryo-EM structure, […] Å; assay type: binding; details: nucleotide bound to NDUFA10, adenine stacks on Phe134
T1 construct: supernumerary subunit within native intact complex I from mouse heart mitochondria
T1 sequence (Q99LC3 36-355): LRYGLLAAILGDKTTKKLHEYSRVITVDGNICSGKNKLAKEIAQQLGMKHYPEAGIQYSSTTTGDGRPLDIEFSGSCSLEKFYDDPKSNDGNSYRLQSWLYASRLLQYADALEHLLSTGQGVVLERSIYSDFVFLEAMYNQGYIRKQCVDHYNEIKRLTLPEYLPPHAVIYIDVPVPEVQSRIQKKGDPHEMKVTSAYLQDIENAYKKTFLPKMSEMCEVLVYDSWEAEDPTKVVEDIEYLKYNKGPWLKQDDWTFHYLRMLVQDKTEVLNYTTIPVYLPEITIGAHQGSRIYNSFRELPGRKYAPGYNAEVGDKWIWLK

[2] = target: T2, complex I (NADH:ubiquinone oxidoreductase), bovine (Bos taurus, UniProt P03887+P17694+P42026); test: NADH oxidation ([…]-380 nm) in complex I-AOX proteoliposomes; assay type: biochemical; details: Q10 in membrane phase (nmol per mg phospholipid), no piericidin, AOX recycling, 200 uM NADH, pH 7.5, 32 °C
T2 construct: gene NDUFS2; native intact 45-subunit complex I from heart; in proteoliposomes with Q10 and AOX, or detergent-solubilised (EPR sample); with NADH-ubiquinone oxidoreductase chain 2; NADH-ubiquinone oxidoreductase chain 3; NADH-ubiquinone oxidoreductase chain 4; NADH-ubiquinone oxidoreductase chain 4L; NADH-ubiquinone oxidoreductase chain 5; NADH-ubiquinone oxidoreductase chain 6; NADH-ubiquinone oxidoreductase 75 kDa subunit, mitochondrial; NADH dehydrogenase [ubiquinone] flavoprotein 1, mitochondrial; NADH dehydrogenase [ubiquinone] flavoprotein 2, mitochondrial; NADH dehydrogenase [ubiquinone] iron-sulfur protein 3, mitochondrial; NADH dehydrogenase [ubiquinone] iron-sulfur protein 8, mitochondrial
T2 sequence (P17694 34-463): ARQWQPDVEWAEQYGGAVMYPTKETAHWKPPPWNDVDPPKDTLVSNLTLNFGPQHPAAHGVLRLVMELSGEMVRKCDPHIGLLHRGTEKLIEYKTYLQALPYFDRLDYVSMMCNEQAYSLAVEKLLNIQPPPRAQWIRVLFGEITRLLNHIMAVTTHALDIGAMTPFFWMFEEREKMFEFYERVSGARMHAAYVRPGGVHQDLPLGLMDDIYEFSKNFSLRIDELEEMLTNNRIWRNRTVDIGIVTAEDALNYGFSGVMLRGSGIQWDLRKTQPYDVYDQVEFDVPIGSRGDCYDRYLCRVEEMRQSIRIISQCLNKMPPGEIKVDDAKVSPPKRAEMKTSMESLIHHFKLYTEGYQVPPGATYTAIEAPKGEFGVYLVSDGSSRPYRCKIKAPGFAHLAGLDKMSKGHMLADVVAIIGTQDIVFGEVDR
T2 sequence (P42026 38-216): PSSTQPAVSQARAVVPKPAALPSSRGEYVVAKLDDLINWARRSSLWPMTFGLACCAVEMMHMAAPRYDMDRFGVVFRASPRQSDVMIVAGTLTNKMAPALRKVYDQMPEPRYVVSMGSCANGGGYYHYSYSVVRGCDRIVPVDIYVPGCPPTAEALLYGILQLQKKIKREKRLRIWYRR
T2 sequence (P03887 whole entry): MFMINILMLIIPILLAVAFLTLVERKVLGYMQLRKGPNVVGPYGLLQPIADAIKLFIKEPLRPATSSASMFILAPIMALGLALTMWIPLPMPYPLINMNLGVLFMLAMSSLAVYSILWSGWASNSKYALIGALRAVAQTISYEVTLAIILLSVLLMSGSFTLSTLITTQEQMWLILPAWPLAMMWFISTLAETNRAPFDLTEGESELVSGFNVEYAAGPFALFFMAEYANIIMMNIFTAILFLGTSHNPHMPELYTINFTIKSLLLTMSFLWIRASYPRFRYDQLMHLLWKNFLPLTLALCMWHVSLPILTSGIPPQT

[3] = target: T2, complex I (NADH:ubiquinone oxidoreductase), bovine; test: global kinetic fit of NADH oxidation in proteoliposomes; assay type: biochemical; details: two-site competitive model; second inhibitor binds more tightly; Q10 varied, AOX recycling, 200 uM NADH, pH 7.5, 32 °C
[4] = target: T3, mouse complex I (Mus musculus, UniProt P03888+Q91WD5+Q9DC70); test: cryo-EM structure, […] Å; details: ubiquinone-binding site, active state, cluster N2 reduced; NDUFS2 His59 and Tyr108
T3 construct: gene Ndufs2; native intact 45-subunit complex I purified from heart mitochondria in DDM; with NADH-ubiquinone oxidoreductase chain 2; NADH-ubiquinone oxidoreductase chain 3; NADH-ubiquinone oxidoreductase chain 4; NADH-ubiquinone oxidoreductase chain 4L; NADH-ubiquinone oxidoreductase chain 5; NADH-ubiquinone oxidoreductase chain 6; NADH-ubiquinone oxidoreductase 75 kDa subunit, mitochondrial; NADH dehydrogenase [ubiquinone] flavoprotein 1, mitochondrial; NADH dehydrogenase [ubiquinone] flavoprotein 2, mitochondrial; NADH dehydrogenase [ubiquinone] iron-sulfur protein 3, mitochondrial; NADH dehydrogenase [ubiquinone] iron-sulfur protein 8, mitochondrial
T3 sequence (Q91WD5 34-463): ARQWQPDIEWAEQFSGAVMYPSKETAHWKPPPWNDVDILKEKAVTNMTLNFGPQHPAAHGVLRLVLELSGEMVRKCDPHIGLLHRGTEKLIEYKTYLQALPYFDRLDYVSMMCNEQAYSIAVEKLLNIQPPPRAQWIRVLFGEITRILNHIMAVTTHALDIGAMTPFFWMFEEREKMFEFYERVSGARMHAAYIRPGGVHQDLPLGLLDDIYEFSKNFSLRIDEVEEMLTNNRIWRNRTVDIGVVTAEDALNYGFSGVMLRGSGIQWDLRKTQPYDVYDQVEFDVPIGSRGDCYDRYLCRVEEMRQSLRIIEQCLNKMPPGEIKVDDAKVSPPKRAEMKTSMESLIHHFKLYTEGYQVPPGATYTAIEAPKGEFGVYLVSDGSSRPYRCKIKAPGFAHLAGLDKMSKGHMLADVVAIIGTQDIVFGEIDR
T3 sequence (Q9DC70 36-224): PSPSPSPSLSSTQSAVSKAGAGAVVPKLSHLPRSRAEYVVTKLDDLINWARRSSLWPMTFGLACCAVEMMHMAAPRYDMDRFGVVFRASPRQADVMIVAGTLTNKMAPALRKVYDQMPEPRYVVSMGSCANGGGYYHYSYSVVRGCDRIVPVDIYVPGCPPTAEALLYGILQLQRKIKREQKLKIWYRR
T3 sequence (P03888 whole entry): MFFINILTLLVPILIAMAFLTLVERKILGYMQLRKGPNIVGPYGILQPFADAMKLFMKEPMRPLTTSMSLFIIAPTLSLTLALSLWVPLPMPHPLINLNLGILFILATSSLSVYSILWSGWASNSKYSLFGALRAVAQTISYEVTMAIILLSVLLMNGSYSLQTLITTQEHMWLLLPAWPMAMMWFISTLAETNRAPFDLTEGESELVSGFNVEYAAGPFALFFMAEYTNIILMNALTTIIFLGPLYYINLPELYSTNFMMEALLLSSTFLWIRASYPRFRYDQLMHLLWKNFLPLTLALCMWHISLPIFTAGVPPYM

## Nc1ncnc2c1ncn2[C@@H]1O[C@H](COP(=O)(O)OP(=O)(O)OP(=O)(O)O)[C@@H](O)[C@H]1O [ATP]
[1]
  cryo-EM structure, 3.0 Å: replacement of the ADP bound to NDUFA10 with ATP

## COC1=C(OC)C(=O)C(C/C=C(\C)CC/C=C(\C)CC/C=C(\C)CC/C=C(\C)CC/C=C(\C)CC/C=C(\C)CC/C=C(\C)CC/C=C(\C)CC/C=C(\C)CCC=C(C)C)=C(C)C1=O [Q10]
[2]
  KM,app: modelled by a series of Michaelis–Menten curves for their Q10 dependence

## C/C=C(\C)[C@H](O)[C@H](C)/C=C(C)/C=C/C/C(C)=C/Cc1nc(OC)c(OC)c(O)c1C [piericidin A]
[3]
  KI: the second inhibitor binds substantially more tightly than the first
[4]
  cryo-EM structure, 3.0 Å: The piericidin headgroup binds adjacent to NDUFS2 His59 and Tyr108
